Assays:
HEK-Blue hTLR8 cell line = test: Toxicity test of compounds (CCK-8 cell viability); format: cell-based, human; design: key to WST1 (normalized toxicity effect): viability relative to control well (background-subtracted OD), 1 = control; details: normalized cell viability, HEK-Blue cell lines
Protocol: In the 96-well plate used for the above-mentioned activity test of compounds (remaining 50 μL of culture medium containing cells), 5 μL of CellCountingKit-8 (CCK-8) Supermix was added to each well. Note that the introduction of air bubbles into the wells should be avoided since the air bubbles would interfere with the detection of OD value.
The culture plate was incubated in an incubator for 1 to 4 hours,
The edge of the 96-well plate could be tapped gently before reading the plate, and then the absorbance at 450 nm was measured by using the multi-mode plate reader.
Cell viability (%) was determined using the following formula: cell viability (%)=([Compound well ([…])−Background well (OD450)]/[Control well ([…])−Background well (OD450)])×100%. Among these, the background well was only added with the medium and CCK-8 reagent, the control well was only added with the medium, cells, R848 and CCK-8, and the compound wells were added with the medium, cells, R848, compounds in different concentrations, and CCK-8.

TLR8 = target: T1, TLR8 (Homo sapiens, UniProt Q9NR97); test: Inhibition of R848-induced signaling in HEK-Blue hTLR8 cell line (Quanti-Blue); format: cell-based; details: HEK-Blue hTLR8 cell line; normalized, ligand+DMSO = 100% activity, untreated = 0%
T1 construct: host or cells: HEK-Blue hTLR8 (HEK293-derived SEAP reporter cells)
T1 sequence (Q9NR97 27-1041): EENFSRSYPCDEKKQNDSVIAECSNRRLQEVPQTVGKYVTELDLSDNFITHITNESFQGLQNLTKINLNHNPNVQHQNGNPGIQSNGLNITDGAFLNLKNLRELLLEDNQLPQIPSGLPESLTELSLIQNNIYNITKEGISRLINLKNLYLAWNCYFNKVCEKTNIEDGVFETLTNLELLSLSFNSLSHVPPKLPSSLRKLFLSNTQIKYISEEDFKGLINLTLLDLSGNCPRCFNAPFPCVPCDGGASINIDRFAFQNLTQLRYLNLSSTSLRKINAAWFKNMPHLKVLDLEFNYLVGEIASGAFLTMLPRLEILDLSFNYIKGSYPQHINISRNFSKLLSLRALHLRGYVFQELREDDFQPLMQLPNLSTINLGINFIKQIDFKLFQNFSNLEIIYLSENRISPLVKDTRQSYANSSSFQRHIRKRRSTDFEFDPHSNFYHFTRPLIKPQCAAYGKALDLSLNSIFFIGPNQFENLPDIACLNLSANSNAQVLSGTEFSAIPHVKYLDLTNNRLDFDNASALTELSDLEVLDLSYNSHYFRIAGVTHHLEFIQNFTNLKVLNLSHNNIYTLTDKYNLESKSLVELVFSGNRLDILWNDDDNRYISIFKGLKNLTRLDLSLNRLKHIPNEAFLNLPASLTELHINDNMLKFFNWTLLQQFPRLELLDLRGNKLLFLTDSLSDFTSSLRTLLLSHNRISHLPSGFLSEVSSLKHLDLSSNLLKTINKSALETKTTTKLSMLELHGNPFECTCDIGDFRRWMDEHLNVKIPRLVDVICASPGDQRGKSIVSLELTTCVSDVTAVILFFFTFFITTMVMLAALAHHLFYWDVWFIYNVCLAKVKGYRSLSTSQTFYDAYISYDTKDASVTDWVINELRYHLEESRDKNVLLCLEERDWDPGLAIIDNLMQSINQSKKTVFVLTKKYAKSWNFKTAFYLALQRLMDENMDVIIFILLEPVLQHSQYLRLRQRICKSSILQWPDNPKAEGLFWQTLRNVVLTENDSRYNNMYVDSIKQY
Protocol: (§1) HEK Blue hTLR8 cells or HEK Blue hTLR7 cells were cultured in DMEM medium supplemented with 10% fetal bovine serum, penicillin (100 U/mL) and streptomycin ([…]). Thereafter, cells were seeded in 96-well plate (45,000 cells per well), and were cultured for 24 hours in a humidified incubator (37° C., 5% CO2).
After 24 hours, the supernatant and suspending cells were aspirated and replaced with fresh serum-free DMEM.
(§2) After 24 hours, 50 μL of the medium was aspirated from each well and then added to a new 96-well plate, followed by the addition of 50 μL of Quanti-Blue in each well and the incubation at 37° C. in darkness. Changes in color would occur in the […] within 60 minutes, and the absorbance was measured at 620 nm by using the multi-mode plate reader Vrioskan Flash. Inhibition rate (%)=[R848 (OD620)−Compound (OD620)]/[R848 (OD620)−Control (OD620)]×100%. Among these, the control group was only added with the same amount of cells. Finally, the software Prism 6.0 was utilized to plot a graph and calculate IC50 values. Or, the activity of the cells treated with ligand and DMSO was defined as 100% activity, and the activity of the untreated cells was defined as 0% activity.

TLR7 = target: T2, TLR7 (Homo sapiens, UniProt Q9NYK1); test: Inhibition of R848-induced signaling in HEK-Blue hTLR7 cell line (Quanti-Blue); format: cell-based
T2 construct: host or cells: HEK-Blue hTLR7 (HEK293-derived SEAP reporter cells)
T2 sequence (Q9NYK1 27-1049): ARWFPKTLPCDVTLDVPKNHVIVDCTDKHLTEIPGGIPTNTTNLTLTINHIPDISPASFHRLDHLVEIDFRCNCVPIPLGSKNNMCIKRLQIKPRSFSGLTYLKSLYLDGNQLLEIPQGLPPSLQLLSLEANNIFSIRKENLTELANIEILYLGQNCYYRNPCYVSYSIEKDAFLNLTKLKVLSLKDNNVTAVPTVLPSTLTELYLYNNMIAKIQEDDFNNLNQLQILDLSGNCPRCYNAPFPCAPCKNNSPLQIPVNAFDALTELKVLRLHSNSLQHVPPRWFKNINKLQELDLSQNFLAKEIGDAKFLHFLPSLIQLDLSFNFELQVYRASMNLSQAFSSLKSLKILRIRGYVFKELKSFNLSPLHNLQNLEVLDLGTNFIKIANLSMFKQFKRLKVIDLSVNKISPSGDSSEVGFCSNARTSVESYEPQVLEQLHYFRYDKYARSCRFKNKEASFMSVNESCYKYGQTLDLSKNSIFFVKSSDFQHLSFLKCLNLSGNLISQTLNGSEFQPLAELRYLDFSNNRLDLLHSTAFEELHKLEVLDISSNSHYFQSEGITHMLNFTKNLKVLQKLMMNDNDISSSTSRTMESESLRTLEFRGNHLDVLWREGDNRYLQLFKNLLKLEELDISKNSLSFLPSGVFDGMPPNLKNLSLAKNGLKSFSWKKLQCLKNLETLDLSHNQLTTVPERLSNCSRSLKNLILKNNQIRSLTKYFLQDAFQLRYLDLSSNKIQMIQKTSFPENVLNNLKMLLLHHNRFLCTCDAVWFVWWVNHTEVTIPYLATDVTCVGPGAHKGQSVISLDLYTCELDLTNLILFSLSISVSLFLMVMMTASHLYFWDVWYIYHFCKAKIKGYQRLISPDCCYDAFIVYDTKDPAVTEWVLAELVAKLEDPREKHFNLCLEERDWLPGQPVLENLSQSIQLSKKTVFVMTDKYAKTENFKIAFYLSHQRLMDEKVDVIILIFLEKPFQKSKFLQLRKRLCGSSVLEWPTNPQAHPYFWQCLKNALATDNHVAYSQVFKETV
Protocol: as §1
After 24 hours, the supernatant and suspending cells were aspirated and replaced with fresh serum-free DMEM. Cells were treated with 1 μg/mL of R848 (agonist of TLR7/8) or 5 μg/mL of ssRNA40/LyoVec or 5 μg/mL of ORN06/LyoVec (InvivoGen) and compounds with specified concentrations, and were placed in a humidified incubator (37° C., 5% CO2) for co-culture.
as §2

Remaining R848-induced TLR8 signaling (normalized activity; ligand+DMSO = 1, untreated = 0) (TLR8)	TLR7 (normalized inhibitory effect on R848-induced signaling) (TLR7)	SMILES	WST1 (normalized toxicity effect) (HEK-Blue hTLR8 cell line)
0.9 ± 0.2	0.7 ± 0.1	CCOCc1nc(C(C)C)c(-c2ccccc2)n1CC(C)(C)O [Compound 48, 1-[2-(ethoxymethyl)-5-phenyl-4-(prop-2-yl)-1H-imidazole-1-yl]-2-methylpropan-2-ol]	0.8 ± 0.3
0.01 ± 0.01	0.9 ± 0.1	CCOCc1nc(I)c(-c2cccc(-c3ccccc3)c2)n1CC(C)(C)O [Compound 61, 1-(5-([1,1′-biphenyl]-3-yl)-2-(ethoxymethyl)-4-iodo-1H-imidazole-1-yl)-2-methylpropan-2-ol]	0.9 ± 0.2
1.0 ± 0.2	0.8 ± 0.1	CCOCc1nc(C(=N)N)c(-c2ccccc2)n1CC(C)(C)O [Compound 39, 2-(ethoxymethyl)-1-(2-hydroxy-2-methylpropyl)-5-phenyl-1H-imidazole-4-carboxamidine]	0.7 ± 0.2
1.2 + 0.2	1.1 ± 0.2	CCOCc1nc(C=O)c(-c2ccccc2)n1CC(C)(C)O [Compound 41, 2-(ethoxymethyl)-1-(2-hydroxy-2-methylpropyl)-5-phenyl-1H-imidazole-4-carbaldehyde]	0.7 ± 0.2
0.01 ± 0.01	0.1 ± 0.1	CCOCc1nc(Br)c(-c2ccccc2)n1CC(C)C [Compound 57, 4-bromo-2-(ethoxymethyl)-1-(2-methylpropyl)-5-phenyl-1H-imidazole]	0.7 ± 0.1
0.5 ± 0.2	0.6 ± 0.2	CCOCc1nc(Cl)c(-c2ccccc2)n1CC(C)C [Compound 56, 4-chloro-2-(ethoxymethyl)-1-(2-methylpropyl)-5-phenyl-1H-imidazole]	0.7 ± 0.2

More lines, now with the values behind:

SMILES	Remaining R848-induced TLR8 signaling (normalized activity; ligand+DMSO = 1, untreated = 0) (TLR8)	TLR7 (normalized inhibitory effect on R848-induced signaling) (TLR7)	WST1 (normalized toxicity effect) (HEK-Blue hTLR8 cell line)
CCOCc1nc(C)c(-c2ccccc2)n1CC(C)(C)O [Compound 45, 1-[2-(ethoxymethyl)-4-methyl-5-phenyl-1H-imidazole-1-yl]-2-methylpropan-2-ol]	0.8 ± 0.2	0.9 ± 0.1	0.8 ± 0.3
CCOCc1nc(CO)c(-c2ccccc2)n1CC(C)(C)O [Compound 43, 1-[2-(ethoxymethyl)-4-(hydroxymethyl)-5-phenyl-1H-imidazole-1-yl]-2-methylpropan-2-ol]	1.0 ± 0.2	0.9 ± 0.2	0.8 ± 0.1
CCOCc1nc(C#N)c(-c2ccccc2)n1CC(C)(C)O [Compound 38, 2-(ethoxymethyl)-1-(2-hydroxy-2-methylpropyl)-5-phenyl-1H-imidazole-4-carbonitrile]	1.1 ± 0.2	1.0 ± 0.2	0.7 ± 0.3
CCOCc1nc(I)c(-c2ccccc2)n1CC(C)C [Compound 58, 2-(ethoxymethyl)-4-iodo-1-(2-methylpropyl)-5-phenyl-1H-imidazole]	0.01 ± 0.01	0.1 ± 0.2	0.3 ± 0.2
CCOCc1nc(Cl)c(-c2ccccc2)n1CC(C)(C)O [Compound 51, 1-[4-chloro-2-(ethoxymethyl)-5-phenyl-1H-imidazole-1-yl]-2-methylpropan-2-ol]	0.6 ± 0.1	1.1 ± 0.2	0.9 ± 0.2
CCOCc1nc(COC)c(-c2ccccc2)n1CC(C)(C)O [Compound 44, 1-[2-(ethoxymethyl)-4-(methoxymethyl)-5-phenyl-1H-imidazole-1-yl]-2-methylpropan-2-ol]	1.0 ± 0.3	0.9 ± 0.2	0.8 ± 0.2
CCOCc1nc(C(N)=O)c(-c2ccccc2)n1CC(C)(C)O [Compound 40, 2-(ethoxymethyl)-1-(2-hydroxy-2-methylpropyl)-5-phenyl-1H-imidazole-4-carboxamide]	0.7 ± 0.1	1.0 ± 0.1	0.8 ± 0.3

Source: patent US20230002327A1, “SMALL-MOLECULE REGULATOR OF TLR8” (TSINGHUA UNIVERSITY, priority 2019, published 2023)
